Assay results reported in patent US20250009748A1 (NAVIRE PHARMA, INC., priority 2021, published 2025).
Entries after “also recorded” stand apart in the source; their conditions may differ.

Tests used:
[1] = system: NCI-H358 subcutaneous cell line-derived tumors (NSCLC, KRAS G12C); assay: NCI-H358 subcutaneous cell line-derived xenograft, formula (10b) and sotorasib (Example 2); assay type: in vivo, NOD/SCID mice; settings: Day 29, n = 10; for Mean Tumor REG: Formula (10b) 100 mg/kg QD PO
Excerpt: (§1) Tumor Cell Line Culture. […] Passage 9 NCI-H358 cells were thawed and expanded, and passage 13 cells were harvested for inoculations. […] Passage 6 NCI-H2122 cells were thawed and expanded, and passage 14 cells were harvested for inoculations.
(§2) Animal Inoculations and Randomization. All experiments were reviewed and approved by the Crown Bioscience, Inc., Institutional Animal Care and Use Committee (IACUC) prior to execution and performed in accordance with the regulations of the Association for Assessment and Accreditation of Laboratory Animal Care (AAALAC). […] Mice were randomized into four groups (10 mice/group) by tumor volume (size mm^3) 13 days post cell inoculation when the mean tumor volume was 160 mm^3. […] Mice were randomized into four groups (10 mice/group) by tumor volume (size mm^3) 9 days post cell inoculation when the mean tumor volume was 180 mm^3.
(§3) Tumor and Body Weight Measurements. […] Dosing as well as tumor and body weight measurements were conducted in a Laminar flow cabinet.
(§4) Statistical analyses. Statistical analyses were performed with GraphPad Prism software (version 9). For statistical analyses comparing the vehicle group to all other groups, two-way repeated-measures analysis of variance (ANOVA) followed by post hoc Tukey's multiple comparisons test of the means was applied over the indicated number of days. For statistical analyses comparing the monotherapy and combination groups, two-way repeated-measures ANOVA was performed between each monotherapy group mean and combination group mean over the number of indicated days. A p value of less than 0.05 was considered statistically significant.
Female NOD/SCID mice were implanted subcutaneously with NSCLC NCI-H358 tumor cells. […] Mouse tumor volumes were measured twice weekly until day 34 and results are shown through day 29.

[2] = system: NCI-H2122 subcutaneous cell line-derived tumors (NSCLC, KRAS G12C, KEAP1, STK11); assay: NCI-H2122 subcutaneous cell line-derived xenograft, formula (10b) and sotorasib (Example 2); assay type: in vivo, BALB/c nude mice; settings: Day 21, n = 10; for TGI: Formula (10b) 100 mg/kg QD PO
Excerpt: as §1, §2, §3, §4

[3] = system: NCI-H358 subcutaneous tumors (human NSCLC, KRAS G12C); assay: NCI-H358 subcutaneous xenograft efficacy study, formula (10b) and Compound A (Example 1); assay type: in vivo, NOD/SCID mice; settings: for Day 21 TGI: n = 8
Excerpt: Cell lines. The NCI-H358 cell line was purchased from ATCC. It is a human NSCLC cell line, harboring heterozygous mutation of KRAS G12C.
Test animals. Female NOD/SCID mice (Beijing Anikeeper Biotech Co., Ltd) were utilized in this experiment. Animals were 6˜8 weeks of age at the time of xenograft implantation. The protocol and any amendment(s) or procedures involving the care and use of animals in this study was reviewed and approved by the Institutional Animal Care and Use Committee (IACUC) of Crown Bioscience Ltd. prior to execution. During the study, the care and use of animals was conducted in accordance with the regulations of the Association for Assessment and Accreditation of Laboratory Animal Care (AAALAC).
In vivo modeling, treatment and data analysis.
When the average tumor volume reached 250 mm^3, mice were randomized into groups of 8 based on both tumor volume and body weight.
Tumor volume was measured twice a week.
Day 0 was the day before treatment started.
Ti and Ci are the mean tumor volumes of the treatment and vehicle groups on the measurement day, respectively; C0 is the mean tumor volume of the vehicle group on day 0.
Tumor volume was monitored bi-weekly by caliper and body weights were recorded. Data presented in FIGS. 1A-1E represent mean±SEM, and N=8 mice/group for FIGS. 1B-1E and N=10 mice/group for FIG. 1A.

[4] = LC-MS/MS plasma concentration of formula (10b) and Compound A at end of efficacy study (Example 1); assay type: in vivo, NOD/SCID mice; settings: for concentration at 8 h / concentration at 2 h: NOD/SCID, mouse, plasma, oral; for concentration at 2 h: Compound A Plasma concentration
Excerpt: Blood collection for pharmacokinetic analysis. Blood from live animals for pharmacokinetic (PK) analyses was obtained via the retro-orbital sinus. The mouse was grasped firmly behind the ears and rotated slightly to one side so that a disposable, sterile microcapillary tube could be inserted behind the eyeball and gently rotated to break the sinus cavity. Blood flowed through the capillary tube, directly into a K2 EDTA tube (Jiangsu KangJian Medical Apparatus Corporation #044022) to a volume of 100 μL. Blood in the tube was inverted several times to distribute the EDTA evenly. To separate plasma, tubes were centrifuged in a bench top centrifuge (Eppendorf, Model 5424R) for 5 minutes at 8000 rpm without braking. The supernatant (plasma) was carefully transferred to a microcentrifuge tube and placed onto dry ice prior to storage at −80° C.
For plasma sample analysis, 20 μL of each sample was precipitated with 200 μL of acetonitrile containing Glipizide (100 ng/mL) as an internal standard. This suspension was vortexed for 1 min and centrifuged at 4,000 rpm for 10 min, after which 80 μL of the extract was aliquoted for LC-MS/MS analysis. LC-MS/MS analysis was conducted on a Shimadzu Nexera UHPLC system coupled with a Sciex 6500 TQ-S triple quadrupole mass spectrometer (MS/MS) operated at the positive mode (ESI+). […] The injection volume was 2 μL. The LC mobile phase A was 0.025% formic acid-water containing 1 mM ammonium acetate and B was 100% methanol containing 5 mM ammonium acetate. The gradient (% B) was 2% (0-0.4 min), 2-65% ([…]), 65-90% (0.7 to 1.3 min), 90% (1.3-1.9 min), 90-2% (1.9 to 1.91 min), 2% (1.91-2.5 min). The flow rate was 0.6 mL/min. The column temperature was 60° C.

[5] = Tolerability (body weight, mouse loss) in NCI-H358 xenograft study (Example 1); settings: for Mean body weight change: Day 29, n = 10; for Mouse loss and observations: n = 8 mice/group
Experimental: Dosing started ˜2 weeks post the subcutaneous implantation of the tumor cells. […] Tumor volume was measured twice a week. The body weight and tumor volume were captured in the StudyDirector software version 3.1.399.19 (StudyLog).
Data were analyzed using Microsoft Excel and GraphPad Prism 8.0. Day 0 was the day before treatment started.
BWi and BW0 are the body weight of an individual mouse on measurement day I and on day 0, respectively.

[6] = Tolerability / body weight in NCI-H2122 study (Example 2)
Experimental: Body weights (BW) were also recorded twice weekly. […] Mean body weight changes (±SEM) were recorded for group.
Experimental Endpoints. Animal health was monitored at least twice weekly through behavioral observations and weight checks. After tumor inoculation, the animals were checked daily for morbidity and mortality. During routine monitoring, the animals were checked for any effects of tumor growth and treatments on behavior such as mobility, food and water consumption, body weight gain/loss, eye/hair matting, and any other abnormalities.
Study endpoint was defined when animals reached one of the following criteria for euthanasia: ≥20% body weight loss at any time versus day 1, ≥15% body weight loss for 72 hours versus day 1, individual tumor volume of ≥3000 mm^3, or all mice in each group were euthanized when the mean tumor volume reached ≥2000 mm^3.

Cc1c(N2CCC3(CC2)CO[C@@H](C)[C@H]3N)nc(C)n(-c2cccc(Cl)c2Cl)c1=O (atropisomer, axis not shown; (Ra)) [Formula (10b), 6-((3S,4S)-4-amino-3-methyl-2-oxa-8-azaspiro[4.5]decan-8-yl)-3-(Ra)-(2,3-dichlorophenyl)-2,5-dimethylpyrimidin-4(3H)-one]
Mean Tumor Volume (±SEM) ([1]; Formula (10b) 100 mg/kg QD PO day 1-28): 138 (±17) mm^3 | Mean Tumor REG [1]: 14% | Mean Tumor REG ([1]; listed as formula (10b)): 14% | Mean Tumor Volume (±SEM) ([2]; Formula (10b) 100 mg/kg QD PO day 1-21): 590 (±48) mm^3 | TGI [2]: 58% | TGI ([2]; listed as formula (10b)): 58% | Mean tumor regression ([3]; Day 29, Formula (10b) 100 mg/kg QD PO, n = 10, FIG. 1A): 14% | Number of regressions ([3]; Day 29, Formula (10b) 100 mg/kg QD, n = 10): 8/10 | Day 21 TGI ([3]; Formula (10b) 50 mg/kg QD PO): 46% | Day 21 TGI ([3]; Formula (10b) 50 mg/kg QD PO, listed as formula (10b)): 46% | Day 21 TGI ([3]; Formula (10b) 100 mg/kg QD PO): 89% | Day 21 TGI ([3]; Formula (10b) 100 mg/kg QD PO, listed as formula (10b)): 89% | effect on growth of NCI-H358 tumors (in words) ([3]; formula (10b) monotherapy at 100 mg/kg QD): approximately tumor stasis | Formula (10b) Plasma concentration ([4]; 8 hours after final dose of formula (10b), Formula (10b) 50 mg/kg QD, mean ± SD, N = 4): 4.44 ± 1.05 µM | Formula (10b) Plasma concentration ([4]; 8 hours after final dose of formula (10b), Formula (10b) 100 mg/kg QD, mean ± SD, N = 4): 7.54 ± 1.60 µM | Compound A Plasma concentration ([4]; Formula (10b) 50 mg/kg QD alone, BQL = below quantitation limit (3 nM)): BQL | Compound A Plasma concentration ([4]; Formula (10b) 100 mg/kg QD alone, BQL = below quantitation limit (3 nM)): BQL | concentration at 8 h ([4]; 50 mg/kg, 8 hours after final dose of formula (10b), Formula (10b) 50 mg/kg QD, mean ± SD, N = 4): 4.4 µM | concentration at 8 h ([4]; 100 mg/kg, 8 hours after final dose of formula (10b), Formula (10b) 100 mg/kg QD, mean ± SD, N = 4): 7.5 µM | Mean body weight change ([5]; Formula (10b) 100 mg/kg QD): −6.5% | Mouse loss and observations ([5]; Formula (10b) 50 mg/kg QD, each event = one mouse, BWL = body weight loss): Day 3 (BWL); also recorded: Day 12 (BWL); also recorded: Day 19 (BWL) | Mouse loss and observations ([5]; Formula (10b) 100 mg/kg QD, each event = one mouse): Day 18 (Found dead); also recorded: Day 21 (Found dead) | body weight loss ([6]; formula (10b) 100 mg/kg QD monotherapy, several mice, group placed on diet gel day 11-21): over 10%

C=CC(=O)N1CCN(c2nc(=O)n(-c3c(C)ccnc3C(C)C)c3nc(-c4c(O)cccc4F)c(F)cc23)[C@@H](C)C1 [Sotorasib, reference compound]
tolerability / impact on body weights ([6]; sotorasib 100 mg/kg QD monotherapy, FIG. 3B): well tolerated

C=CC(=O)N1CCN(c2nc(=O)n(-c3c(C)ccnc3C(C)C)c3nc(-c4c(O)cccc4F)c(F)cc23)[C@@H](C)C1 [Compound A, 6-fluoro-7-(2-fluoro-6-hydroxyphenyl)-1-[4-methyl-2-(propan-2-yl)pyridin-3-yl]-4-[(2S)-2-methyl-4-(prop-2-enoyl)piperazin-1-yl]pyrido[2,3-d]pyrimidin-2(1H)-one, reference compound]
Compound A Plasma concentration ([4]; 2 hours after final dose of Compound A, Compound A 30 mg/kg QD, mean ± SD, N = 4, 30 mg/kg): 2.02 ± 0.31 µM | Compound A Plasma concentration ([4]; 2 hours after final dose of Compound A, Compound A 100 mg/kg QD, mean ± SD, N = 4, 100 mg/kg): 8.77 ± 7.25 µM | Formula (10b) Plasma concentration ([4]; Compound A 30 mg/kg QD alone, BQL = below quantitation limit (3 nM)): BQL | Formula (10b) Plasma concentration ([4]; Compound A 100 mg/kg QD alone, BQL = below quantitation limit (3 nM)): BQL | concentration at 2 h ([4]; 30 mg/kg, 2 hours after final dose of Compound A, Compound A 30 mg/kg QD, mean ± SD, N = 4): 2 µM | concentration at 2 h ([4]; 100 mg/kg, 2 hours after final dose of Compound A, Compound A 100 mg/kg QD, mean ± SD, N = 4): 8.8 µM | Mouse loss and observations ([5]; Compound A 30 mg/kg QD): None | Mouse loss and observations ([5]; Compound A 100 mg/kg QD, dosing day of removal): None | Mean body weight change ([5]; Compound A 10 mg/kg QD): −0.3%
